Experimental data as given in patent publication US20090137616A1, “METHOD FOR THE CONTROL OF PHYTOPATHOGENIC FUNGI” (Syngenta Crop Protection, Inc., priority 2004, published 2009).

Assays:
Pythium = experiment: Sensitivity of Pythium isolates to phenylamide and strobilurin fungicides (summary); type: cell-based; settings: isolates from several species of Pythium that are insensitive to mefenoxam
Method: Plant and soil samples were collected from fields where plant stand establishment issues appeared to be increasing when using standard mefenoxam or metalaxyl seed treatment fungicide programs. Fungal pathogens were isolated from the plant and soil material. Pythium species were identified and studies were conducted to determine the sensitivity of these fungal pathogens to phenylamide and strobilurin fungicides. It can be seen that isolates from several species of Pythium that are insensitive to mefenoxam are sensitive to azoxystrobin or trifloxystrobin.

P. ultimum = experiment: Greenhouse seed treatment efficacy, Pioneer hybrid 34M95 seeds in Pythium-infested soil; type: in vivo; settings: vs uninoculated seeds
Source text: Seeds of the Pioneer hybrid 34M95 were untreated and treated with mefenoxam, azoxystrobin or trifloxystrobin at the rates described in Table 3. To test the efficacy of the seed treatment fungicides pasteurized soil was infested with each isolate of Pythium at a rate of 7.8% (volume of inoculum/volume of soil). All these studies were done under greenhouse conditions, and data presented as a comparison against uninoculated seeds.

[1] = P. ultimum 03-047, seed treatment 1 g a.i/100 KgSeeds
[2] = P. ultimum 03-795, seed treatment 1 g a.i/100 KgSeeds
[3] = P. ultimum 03-047, seed treatment 2 g a.i/100 KgSeeds
[4] = P. ultimum 03-795, seed treatment 2 g a.i/100 KgSeeds
[5] = P. ultimum 03-047, seed treatment 5 g a.i/100 KgSeeds
[6] = P. ultimum 03-795, seed treatment 5 g a.i/100 KgSeeds

| Structure (SMILES) | sensitivity of mefenoxam-insensitive Pythium isolates (Pythium) | % fresh weight reduction (P. ultimum; [1]) [%] | % stand reduction (P. ultimum; [1]) [%] | % fresh weight reduction (P. ultimum; [2]) [%] | % stand reduction (P. ultimum; [2]) [%] | % fresh weight reduction (P. ultimum; [3]) [%] | % stand reduction (P. ultimum; [3]) [%] | % fresh weight reduction (P. ultimum; [4]) [%] | % stand reduction (P. ultimum; [4]) [%] | % fresh weight reduction (P. ultimum; [5]) [%] | % stand reduction (P. ultimum; [5]) [%] | % fresh weight reduction (P. ultimum; [6]) [%] | % stand reduction (P. ultimum; [6]) [%] |
| --- | --- | --- | --- | --- | --- | --- | --- | --- | --- | --- | --- | --- | --- |
| CO/C=C(/C(=O)OC)c1ccccc1Oc1cc(Oc2ccccc2C#N)ncn1 [Azoxystrobin, azoxystrobin] | sensitive | 7.9 | 0.0 | 24.7 | 6.7 |  |  |  |  |  |  |  |  |
| COCC(=O)N(c1c(C)cccc1C)[C@H](C)C(=O)OC [Mefenoxam, mefenoxam] |  |  |  |  |  | 5.2 | 6.7 | 15.3 | 6.7 |  |  |  |  |
| CON=C(C(=O)OC)c1ccccc1CON=C(C)c1cccc(C(F)(F)F)c1 [Trifloxystrobin, trifloxystrobin] | sensitive |  |  |  |  |  |  |  |  | 0.0 | 0.0 | 24.1 | 6.7 |
